Publication PMC3894639 (Pharmacogenetics and genomics, 2013)
Residue numbers refer to the chain shown, from its start. Structures can show the parent of a compound that is named as a salt. Where two headings read alike, the source gives them in different places.

Assays:
[1] = test system: HEK293/FRT cells, empty vector; test: Uptake by HEK293/FRT cells with empty vector; assay type: cell-based, human
OATP1B1 reference = molecular target: T1, OATP1B1 reference (Homo sapiens, UniProt Q9Y6L6); conditions: 20 nmol/l [3H]-ES, 5 min, 37°C
T1 sequence (Q9Y6L6 1-691): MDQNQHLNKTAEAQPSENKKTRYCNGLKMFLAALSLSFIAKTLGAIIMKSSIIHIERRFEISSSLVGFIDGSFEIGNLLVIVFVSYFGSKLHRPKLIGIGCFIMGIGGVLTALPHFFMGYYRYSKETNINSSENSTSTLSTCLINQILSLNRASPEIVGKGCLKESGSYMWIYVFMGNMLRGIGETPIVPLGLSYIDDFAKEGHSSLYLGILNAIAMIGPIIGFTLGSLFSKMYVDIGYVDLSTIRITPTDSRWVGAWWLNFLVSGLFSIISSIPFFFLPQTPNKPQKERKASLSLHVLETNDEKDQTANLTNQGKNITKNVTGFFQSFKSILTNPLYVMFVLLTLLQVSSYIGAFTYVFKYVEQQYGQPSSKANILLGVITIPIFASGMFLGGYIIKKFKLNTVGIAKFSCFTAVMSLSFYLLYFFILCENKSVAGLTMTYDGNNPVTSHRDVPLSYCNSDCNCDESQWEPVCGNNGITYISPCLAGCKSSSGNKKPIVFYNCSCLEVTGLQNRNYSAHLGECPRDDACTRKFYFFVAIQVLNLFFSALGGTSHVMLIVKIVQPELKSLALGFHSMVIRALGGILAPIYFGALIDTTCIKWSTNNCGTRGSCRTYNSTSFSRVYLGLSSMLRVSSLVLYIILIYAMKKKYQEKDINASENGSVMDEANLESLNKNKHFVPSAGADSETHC

OATP1B1 T345M = molecular target: T2, OATP1B1 T345M (Homo sapiens, UniProt Q9Y6L6, T345M); conditions: 20 nmol/l [3H]-ES
T2 sequence (Q9Y6L6 1-691 T345M): T1 sequence (Q9Y6L6 1-691) with T345M

OATP1B1*15 = molecular target: T3, OATP1B1*15 (Homo sapiens, UniProt Q9Y6L6, N130D/V174A); conditions: 20 nmol/l [3H]-ES
T3 sequence (Q9Y6L6 1-691 N130D/V174A): T1 sequence (Q9Y6L6 1-691) with N130D, V174A

OATP1B1 [2] = molecular target: T4, OATP1B1 (Homo sapiens, UniProt Q9Y6L6); conditions: for Inhibition of OATP1B1-mediated uptake of cerivastatin (in words): 5 nmol/l [3H]-CER, concentrations up to 100 µmol/l
T4 sequence (Q9Y6L6 1-691): T1 sequence (Q9Y6L6 1-691)

OATP1B1 [3] = molecular target: T4, OATP1B1; test: Prediction of clinical drug-drug interactions; conditions: for R (CER): cerivastatin as substrate; for Iin,max: Fa 1, Ka 0.1/min, Qh 1500 ml/min
[4] = cited from earlier work
[5] = protein unbound fraction; ref literature; cited from earlier work
OATP1B1 [6] = molecular target: T4, OATP1B1; conditions: for Inhibition of OATP1B1-mediated uptake of ES (in words): 20 nmol/l [3H]-ES, concentrations up to 100 µmol/l
[7] = test system: cerivastatin-induced rhabdomyolysis; conditions: cited from earlier work
OATP1B1 FS (974insGT) = conditions: 5 nmol/l [3H]-CER; frameshift insertion
SLCO1B1 521T>C = SLCO1B1 521T>C polymorphism; cited from earlier work

| Structure (SMILES) | IC50 (OATP1B1 [2]) [µM] | Inhibition of OATP1B1-mediated uptake of cerivastatin (in words) (OATP1B1 [2]) | fu [5] | IC50 (OATP1B1 [6]) [µM] | Inhibition of OATP1B1-mediated uptake of ES (in words) (OATP1B1 [6]) | R (CER) (OATP1B1 [3]; clopidogrel oral dose 600 mg) | Iin,max (OATP1B1 [3]; clopidogrel oral dose 600 mg) [µmol/L] | Cmax ([4]; clopidogrel oral dose 600 mg) [ng/mL] | other results |
| --- | --- | --- | --- | --- | --- | --- | --- | --- | --- |
| C[C@]12CC[C@@H]3c4ccc(OS(=O)(=O)O)cc4CC[C@H]3[C@@H]1CCC2=O [ES, [^3H]-Estrone-3-sulfate ammonium salt] | – | – | – | – | – | – | – | – | ES transport rate ([1]; 20 nmol/l [3H]-ES): 0.01±0.006 pmol/mg of protein/min; ES transport rate (OATP1B1 reference): 0.2±0.01 pmol/mg of protein/min; ES uptake, fraction of reference (OATP1B1 T345M): 0.43±0.07 of reference; Decrease in ES transport vs reference (OATP1B1*15): 66% |
| N[C@@H](Cc1cc(I)c(Oc2cc(I)c(O)c(I)c2)c(I)c1)C(=O)O [Levothyroxine, levothyroxine] | 0.88 | inhibited | 0.01 | 2.04 | inhibited | – | – | – | R (ES) (OATP1B1 [3]; R=1+fu×Iin,max/IC50, ES as substrate, oral dose listed per drug in Table 3): 1.00; Cmax ([4]; at the oral dose listed per drug in Table 3 (clopidogrel 75 mg)): 591 ng/mL |
| COC(=O)[C@H](c1ccccc1Cl)N1CCc2sccc2C1 [Clopidogrel, Clopidogrel hydrogen sulfate] | 3.95 | inhibited | – | – | inhibited | 1.63 | 124.40 | 31.4 | inhibition at 5 min, 100 µmol/l (OATP1B1 [2]; human, probe [3H]-cerivastatin, 5 nmol/l): 52.7%; Odds ratio for cerivastatin-induced rhabdomyolysis ([7]; clopidogrel use in the absence of gemfibrozil use, 95% CI 12.5-182): 47.8; Odds ratio for cerivastatin-induced rhabdomyolysis ([7]; clopidogrel use in the presence of gemfibrozil use, 95% CI 6.1-143): 29.6; IC50 at 5 min (OATP1B1 [6]; human, probe [3H]-estrone-3-sulfate, 20 nmol/l): > 100 µM |
| COC(=O)[C@H](c1ccccc1Cl)N1CCC2SC(=O)C=C2C1 (stereo partly drawn) [2-Oxo clopidogrel, 2-oxo clopidogrel] | 8.18 | inhibited | 0.02 | 8.97 | inhibited | 1.29 | 118.69 | 0.05 | R (ES) (OATP1B1 [3]; ES as substrate, clopidogrel oral dose 600 mg): 1.26 |
| COCc1c(C(C)C)nc(C(C)C)c(/C=C/[C@@H](O)C[C@@H](O)CC(=O)O)c1-c1ccc(F)cc1 [cerivastatin, [^3H]-Cerivastatin sodium salt] | – | – | – | – | – | – | – | – | Cerivastatin uptake, % of reference (OATP1B1 FS (974insGT)): 3.4 % of reference; Cerivastatin uptake transport rate ([1]; 5 nmol/l [3H]-CER): 0.02±0.01 pmol/mg of protein/min; Reduction in cerivastatin uptake (SLCO1B1 521T>C): 40% |
